These results are taken from US7282522B2, “Hydroxamic acid derivatives and the method for preparing thereof” (Amorepacific Corporation, priority 2003, dated 2007).

Series [1] relates to procollagen type I. In words: Effect on collagen biosynthesis (procollagen type I ELISA) in human fibroblasts. In kind it is cell-based. The conditions noted are these: 10^−4M, 24 hours, serum-free medium, relative to control group = 100. The procedure: Human fibroblasts were seeded into 24-well plate at 1×10^5 cells per well and then cultured to 90% of growth.
For each supernatant, procollagen production was measured with procollagen type I ELISA kit.
On the technique in general: In an ELISA, binding on a coated surface is turned into a signal by an enzyme label.

Series [2] has as its system collagenase. Briefly: Inhibition of collagenase expression in human fibroblasts (ELISA kit). The conditions noted are these: 10^−4M, 24 hours, serum-free medium, relative to control group = 100. In kind it is cell-based. The gist of the method: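 Serum-starved human fibroblasts were treated for 24 h with 10^−4M test material in serum-free DMEM. Collagenase in the culture fluid was measured by sandwich ELISA read at 405 nm. Values are expressed as % of the untreated control (=100).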

The test system of series [3] is elastase. In words: Inhibition of elastase expression in human fibroblasts (ELISA kit). In kind it is cell-based. The conditions noted are these: 10^−4M, 24 hours, serum-free medium, relative to control group = 100. The gist of the method:
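Elastase in fibroblast culture fluid quantified by sandwich ELISA: 3 h capture, then chromophore-conjugated secondary antibody, then colour development, stopped with 1M sulfuric acid. Absorbance read at 405 nm. Expression given as % of the untreated control absorbance, with control set to 100.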

Series [4] deals with T1, RARα (Homo sapiens, UniProt P10276).
T1 construct: expressed in transfected cells; host or cells: CV-1 cells (ATCC)
T1 sequence (P10276 1-462): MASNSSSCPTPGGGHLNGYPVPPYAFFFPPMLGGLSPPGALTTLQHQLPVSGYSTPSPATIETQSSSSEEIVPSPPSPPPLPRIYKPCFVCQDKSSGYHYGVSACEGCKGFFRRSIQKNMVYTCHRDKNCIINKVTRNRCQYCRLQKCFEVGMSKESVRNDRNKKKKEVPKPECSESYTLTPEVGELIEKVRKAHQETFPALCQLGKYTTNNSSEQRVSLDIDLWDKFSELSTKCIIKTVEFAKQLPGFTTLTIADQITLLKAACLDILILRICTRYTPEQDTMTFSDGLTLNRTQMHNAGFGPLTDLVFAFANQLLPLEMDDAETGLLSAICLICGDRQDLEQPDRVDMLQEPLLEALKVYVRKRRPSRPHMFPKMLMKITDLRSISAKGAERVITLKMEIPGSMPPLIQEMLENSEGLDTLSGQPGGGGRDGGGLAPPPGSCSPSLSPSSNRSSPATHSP
Briefly: RARE-luciferase reporter assay in transfected CV-1 cells (affinity to retinoic acid receptor), RARα. In kind it is cell-based. As to conditions: treated 24 hours at final concentration 10^−4M, control group 1000. Put shortly: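 CV-1 cells co-transfected with pECE-RARα or pECE-RARγ, RARE-tk-Luc reporter and β-galactosidase vector. Starting 24 h post-transfection, cells were treated for 24 h with compounds at a final 10^−4M; luciferase reporter read-out.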
In general terms: In a reporter assay the amount or activity of a reporter protein is the signal.

In series [5] the test system is rabbits. In words: Primary skin irritation test on animals (Draize P.I.I.). As to conditions: depilated back; for P.I.I. (Primary Irritation Index): 0.5 ml of 1% solution in 1,3-butylene glycol:ethanol 7:3, observed 24 or 72 hours later; for Evaluation (skin irritation): 1% solution, according to Draize's P.I.I.
The test system of series [6] is white guinea pigs. Briefly: Phototoxicity test (UVA irradiation). As to conditions: for Evaluation (phototoxicity): 1%(w/v) solution, UVA 15 J/cm^2; for Phototoxic index: 50 μl of 1%(w/v) solution, UVA 320~380 nm 15 J/cm^2, observed 24, 48 and 72 hours.
Series [7] concerns the target T2, RARγ (Homo sapiens, UniProt P13631).
T2 construct: expressed in transfected cells; host or cells: CV-1 cells (ATCC)
T2 sequence (P13631 1-454): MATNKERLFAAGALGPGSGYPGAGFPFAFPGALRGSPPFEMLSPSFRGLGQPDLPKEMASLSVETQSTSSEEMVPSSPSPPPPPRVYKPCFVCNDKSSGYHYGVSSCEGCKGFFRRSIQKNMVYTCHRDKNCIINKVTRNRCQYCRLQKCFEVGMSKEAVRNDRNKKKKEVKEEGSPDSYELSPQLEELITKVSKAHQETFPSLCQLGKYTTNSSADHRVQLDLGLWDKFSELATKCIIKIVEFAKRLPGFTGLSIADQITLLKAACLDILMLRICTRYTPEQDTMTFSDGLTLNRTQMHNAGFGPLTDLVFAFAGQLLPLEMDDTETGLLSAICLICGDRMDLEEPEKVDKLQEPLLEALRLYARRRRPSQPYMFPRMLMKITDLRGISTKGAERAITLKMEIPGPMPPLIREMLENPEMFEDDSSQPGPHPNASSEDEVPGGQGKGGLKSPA
Briefly: RARE-luciferase reporter assay in transfected CV-1 cells (affinity to retinoic acid receptor), RARγ. In kind it is cell-based. As to conditions: treated 24 hours at final concentration 10^−4M, control group 5000. Put shortly: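 CV-1 cells in DMEM with 2.5% FBS, 5,000 per well, transfected 24 h after seeding with 10 ng pECE-RARα, pECE-RARγ, 100 ng RARE-tk-Luc reporter and 100 ng β-galactosidase vector. Read-out is RARE-driven luciferase.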

`CN(O)C(=O)c1ccc(NC(=O)C23CC4CC(CC(C4)C2)C3)cc1` [Example 11, adamantyl-N-[4-(N-hydroxy-N-methylcarbamoyl)phenyl]carboxyamide]: the “Collagen biosynthesis (%)” value in series [1] came to 110%. Also, the “Collagenase expression (%)” value in series [2] was 81%. Moreover, in series [3], the “Elastase expression (%)” value was 65%. Moreover, the “Luciferase activity RARα” value in series [4] was found to be 11600. Moreover, in series [5], the “P.I.I. (Primary Irritation Index)” value was 0.375 and the “Evaluation (skin irritation)” value was “No irritation”. Also, in series [6], the “Evaluation (phototoxicity)” value is “No phototoxicity (lower value than 0.5, criterion value to be estimated as no phototoxicity)” and the Phototoxic index is 0. Further, the “Luciferase activity RARγ” value in series [7] turned out to be 10000.
As to `CCCCc1ccc(N(C)C(=O)c2ccc(C(=O)NO)cc2)cc1` [Example 51, [4-(N-hydroxycarbamoyl)phenyl]-N-methyl-N-[4-butylphenyl]carboxyamide], the “Collagen biosynthesis (%)” value in series [1] was 121%. In addition, in series [2], the “Collagenase expression (%)” value was 76%. Moreover, the “Elastase expression (%)” value in series [3] is on record as 77%. For the same compound, in series [4], the “Luciferase activity RARα” value came out at 13400. Further, in series [5], the “P.I.I. (Primary Irritation Index)” value was found to be 0.331 and the “Evaluation (skin irritation)” value is “No irritation”. Besides, in series [6], the “Evaluation (phototoxicity)” value is reported as “No phototoxicity (lower value than 0.5, criterion value to be estimated as no phototoxicity)” and the Phototoxic index worked out at 0. In addition, in series [7], the “Luciferase activity RARγ” value is 12210.
With `CC(C)(C)c1ccc(C(=O)Nc2ccc(C(=O)NO)cc2)cc1` [Example 8, N-[4-(N-hydroxycarbamoyl)phenyl][4-tert-butylphenyl]carboxyamide], the “Collagen biosynthesis (%)” value in series [1] was 112%. Also, in series [2], the “Collagenase expression (%)” value stood at 90%. Also, the “Elastase expression (%)” value in series [3] is reported as 69%. Moreover, in series [4], the “Luciferase activity RARα” value worked out at 10002. Besides, in series [5], the “P.I.I. (Primary Irritation Index)” value is recorded as 0.330 and the “Evaluation (skin irritation)” value is on record as “No irritation”. In series [6], the “Evaluation (phototoxicity)” value is recorded as “No phototoxicity (lower value than 0.5, criterion value to be estimated as no phototoxicity)” and the Phototoxic index came to 0. Moreover, in series [7], the “Luciferase activity RARγ” value was found to be 12000.
Take `CCCc1ccc(C(=O)Nc2ccc(C(=O)NO)cc2)cc1` [Example 5, N-[4-(N-hydroxycarbamoyl)phenyl][4-propylphenyl]carboxyamide]: the “Collagen biosynthesis (%)” value in series [1] was found to be 125%. In addition, the “Collagenase expression (%)” value in series [2] is listed as 79%. In series [3], the “Elastase expression (%)” value is 78%. Further, the “Luciferase activity RARα” value in series [4] stood at 18000. Further, in series [5], the “P.I.I. (Primary Irritation Index)” value is recorded as 0.375 and the “Evaluation (skin irritation)” value is “No irritation”. Further, in series [6], the “Evaluation (phototoxicity)” value is recorded as “No phototoxicity (lower value than 0.5, criterion value to be estimated as no phototoxicity)” and the Phototoxic index is recorded as 0. The “Luciferase activity RARγ” value in series [7] is on record as 11000.
With `CN(O)C(=O)c1ccc(C(=O)N(C)C23CC4CC(CC(C4)C2)C3)cc1` [Example 55, N-adamantyl [4-(N-hydroxy-N-methylcarbamoyl)phenyl]-N-methyl carboxyamide], the “Collagen biosynthesis (%)” value in series [1] was 108%. Also, the “Collagenase expression (%)” value in series [2] was 85%. The “Elastase expression (%)” value in series [3] was found to be 70%. Moreover, the “Luciferase activity RARα” value in series [4] turned out to be 13400. In series [5], the “P.I.I. (Primary Irritation Index)” value was determined as 0.245 and the “Evaluation (skin irritation)” value was “No irritation”. Further, in series [6], the “Evaluation (phototoxicity)” value was “No phototoxicity (lower value than 0.5, criterion value to be estimated as no phototoxicity)” and the Phototoxic index was 0. The “Luciferase activity RARγ” value in series [7] was 11000.
Regarding `CC(C)c1ccc(NC(=O)c2ccc(C(=O)NO)cc2)cc1` [Example 39, [4-(N-hydroxycarbamoyl)phenyl]-N-[4-isopropylphenyl]carboxyamide], the “Collagen biosynthesis (%)” value in series [1] came to 105%. Moreover, the “Collagenase expression (%)” value in series [2] was 78%. The “Elastase expression (%)” value in series [3] stood at 87%. Moreover, the “Luciferase activity RARα” value in series [4] worked out at 18700. In series [5], the “P.I.I. (Primary Irritation Index)” value is listed as 0.145 and the “Evaluation (skin irritation)” value was “No irritation”. In addition, in series [6], the “Evaluation (phototoxicity)” value is “No phototoxicity (lower value than 0.5, criterion value to be estimated as no phototoxicity)” and the Phototoxic index amounted to 0. In addition, the “Luciferase activity RARγ” value in series [7] is given as 10100.
On to `O=C(Cc1ccc(NC(=O)C23CC4CC(CC(C4)C2)C3)cc1)NO` [Example 32, N-[4-(N-hydroxycarbamoylmethyl)phenyl]adamantyl carboxyamide], for which, in series [1], the “Collagen biosynthesis (%)” value worked out at 125%. Further, the “Collagenase expression (%)” value in series [2] is on record as 79%. Moreover, in series [3], the “Elastase expression (%)” value amounted to 74%. For the same compound, the “Luciferase activity RARα” value in series [4] stood at 18000. In series [5], the “P.I.I. (Primary Irritation Index)” value turned out to be 0.375 and the “Evaluation (skin irritation)” value is on record as “No irritation”. In series [6], the “Evaluation (phototoxicity)” value was “No phototoxicity (lower value than 0.5, criterion value to be estimated as no phototoxicity)” and the Phototoxic index was 0. Moreover, the “Luciferase activity RARγ” value in series [7] is on record as 10000.
Take `CN(O)C(=O)c1ccc(N(C)C(=O)C23CC4CC(CC(C4)C2)C3)cc1` [Example 22, adamantyl-N-[4-(N-hydroxy-N-methylcarbamoyl)phenyl]-N-methylcarboxyamide]: the “Collagen biosynthesis (%)” value in series [1] is recorded as 120%. In addition, the “Collagenase expression (%)” value in series [2] came out at 77%. Further, the “Elastase expression (%)” value in series [3] was 70%. Also, in series [4], the “Luciferase activity RARα” value stood at 12100. Moreover, in series [5], the “P.I.I. (Primary Irritation Index)” value was 0.350 and the “Evaluation (skin irritation)” value is on record as “No irritation”. Moreover, in series [6], the “Evaluation (phototoxicity)” value is listed as “No phototoxicity (lower value than 0.5, criterion value to be estimated as no phototoxicity)” and the Phototoxic index worked out at 0. The “Luciferase activity RARγ” value in series [7] was 12400.
As for `Cc1ccc(C(=O)N(C)c2ccc(C(=O)NO)cc2)cc1C` [Example 20, N-[4-(N-hydroxcarbamoly)phenyl]-N-methyl-[3,4-dimethylphenyl]carboxyamide], the “Collagen biosynthesis (%)” value in series [1] is listed as 122%. For the same compound, the “Collagenase expression (%)” value in series [2] stood at 68%. Further, the “Elastase expression (%)” value in series [3] stood at 78%. Besides, the “Luciferase activity RARα” value in series [4] was determined as 12200. Moreover, in series [5], the “P.I.I. (Primary Irritation Index)” value is 0.421 and the “Evaluation (skin irritation)” value is reported as “No irritation”. In addition, in series [6], the “Evaluation (phototoxicity)” value is “No phototoxicity (lower value than 0.5, criterion value to be estimated as no phototoxicity)” and the Phototoxic index was determined as 0. Moreover, the “Luciferase activity RARγ” value in series [7] is 12300.
In the case of `Cc1ccc(NC(=O)c2ccc(C(=O)NO)cc2)cc1` [Example 35, [4-(N-hydroxycarbamoyl)phenyl]-N-[4-methylphenyl]carboxyamide], in series [1], the “Collagen biosynthesis (%)” value was 111%. The “Collagenase expression (%)” value in series [2] was 90%. Besides, in series [3], the “Elastase expression (%)” value was 71%. The “Luciferase activity RARα” value in series [4] was determined as 14500. In series [5], the “P.I.I. (Primary Irritation Index)” value stood at 0.245 and the “Evaluation (skin irritation)” value is on record as “No irritation”. In addition, in series [6], the “Evaluation (phototoxicity)” value is given as “No phototoxicity (lower value than 0.5, criterion value to be estimated as no phototoxicity)” and the Phototoxic index amounted to 0. For the same compound, in series [7], the “Luciferase activity RARγ” value was found to be 11300.
